Patent publication US7192962B2, “Xanthine phosphodiesterase V inhibitor polymorphs” (Schering Corporation, priority 2002, dated 2007)
Values after ≈ are worked out from the molar mass of the structure shown.

Legend:
[1] = Thermodynamic stability of the polymorphs; assay type: physicochemical; settings: at process temperatures
Description: The two polymorphs also further differ in their water solubilities (Form 1: about 50 μg/mL vs. Form 2: about 30 μg/mL). […] Form 1 can equilibrate to Form 2 when slurried in one of the Form 2 crystallizing solvents (e.g., alcohol, nitrile, ester, etc.). For example, when a mixture of Form 1 of Compound 13 and Form 2 of Compound 13 is suspended in an organic crystallizing solvent (e.g., ethyl acetate, isopropanol, acetonitrile, and the like), and stored for an extended period of time (e.g., greater than or equal to about 10 hours), the Form 1 component of the mixture will convert to Form 2 of Compound 13.

[2] = Water solubility of the polymorphs; assay type: physicochemical
[3] = molecular target: PDE V isoenzyme (Homo sapiens, UniProt O76074); experiment: PDE V isoenzyme inhibition; assay type: biochemical; settings: concentration required to provide 50% inhibition of PDE V isoenzyme
Source text: Forms 1 and 2 of Compound 13 are each useful for inhibiting PDE V isoenzymes. Their isoenzyme activities (potencies) and isoenzyme selectivities can be measured by the PDE V IC50 value, which is the concentration (in nM) of compound required to provide 50% inhibition of PDE V isoenzyme. […] Similarly, an IC50 value may be obtained for other PDE isoenzymes, such as the PDE VI isoenzyme. Isoenzyme selectivity in this respect may be defined as the activity of a PDE inhibitor compound for a particular PDE isoenzyme as opposed to another PDE isoenzyme, for example, the activity of a compound to inhibit a PDE V isoenzyme compared to the activity of the same compound to inhibit a PDE VI isoenzyme.

| water solubility [2] | IC50 [3] [nM] | solubility [2] [µg/mL] | Compound | thermodynamic stability [1] |
| --- | --- | --- | --- | --- |
| about 30 μg/mL |  |  | CCn1c(=O)c2c(nc(N[C@@H]3CCC[C@H]3O)n2Cc2ccc(OC)c(Br)c2)n(CCO)c1=O [Form 2 of Compound 13, 1-ethyl-3,7-dihydro-8-[(1R,2R) -(hydroxycyclopentyl)amino]-3-(2-hydroxyethyl)-7-[(3-bromo-4-methoxyphenyl)methyl]-1H-Purine-2,6-dione] | more thermodynamically stable than Form 1 of Compound 13 |
|  | 2 to 3 | ~50 (≈ 95.7 µM) | CCn1c(=O)c2c(nc(N[C@@H]3CCC[C@H]3O)n2Cc2ccc(OC)c(Br)c2)n(CCO)c1=O [Form 1 of Compound 13, 1-ethyl-3,7-dihydro-8-[(1R,2R) -(hydroxycyclopentyl)amino]-3-(2-hydroxyethyl)-7-[(3-bromo-4-methoxyphenyl)methyl]-1H-Purine-2,6-dione] |  |
